Laboratory results as given in US8604229B2, “Lipoxin analogs and methods for the treatment of periodontal disease” (University of Southern California, priority 2000, dated 2013).

Experiments:
PGE2 production = assay: PGE2 levels in air pouch exudates (EIA) after P. gingivalis; type: in vivo, BALB/c mice
Procedure: (§1) Six to eight week old male BALB/c mice were obtained from Taconic Farms (Germantown, N.Y.). Air pouches were raised on the dorsum by s.c. injection of 3 ml of sterile air on day 0 and day 3, and all experiments were carried out on day 6 (Sin, Y. M., et al. (1986) Ann. Rheum. Dis. 45, 873). Individual air pouches (one per mouse) were injected with either vehicle alone (0.1% ethanol), with 10 μg 15-R/S-methyl-LXA4-me or with 10 μg 15-epi-16-phenoxy-LXA4-me, followed by 500 μl of sterile PBS or ˜10^5 cells of P. gingivalis strain A7436 (OD600 0.9-1.0) originally obtained from the CF of a patient diagnosed with periodontitis. Mice were sacrificed 4 hr post-injection and individual air pouches were lavaged three times with sterile PBS (3 ml for each lavage) (Sin, Y. M. et al. (1986) Ann. Rheum. Dis. 45, 873; Hachicha, M., et al. (1999) J. Exp. Med. 189, 1923). […] Air pouch exudates were assessed for PGE2 using an enzyme immunoassay (EIA) kit (Cayman Chemical Co., Ann Arbor, Mich. [cross-reactivities in the PGE2 EIA kit were <0.04% for 6-keto PGF1α and <0.01% for LTB4, thromboxane B2 and arachidonic acid]). […]
Since PGE2 is associated with loss of attachment and bone loss in periodontal disease (Offenbacher, S., et al. (1992) J. Periodontal Res. 27, 207), we determined PGE2 levels in the air pouch exudates. […] Also, the expression of COX-2 was evaluated in exudate leukocytes. […]

COX-2 mRNA = assay: COX-2 expression in air pouch exudate leukocytes (northern blot); type: in vivo, BALB/c mice; conditions: within the air pouch, P. gingivalis-injected mice
Procedure: as §1
Since PGE2 is associated with loss of attachment and bone loss in periodontal disease (Offenbacher, S., et al. (1992) J. Periodontal Res. 27, 207), we determined PGE2 levels in the air pouch exudates. […]

## CCCCCC(C)(O)/C=C/C=C\C=C\C=C\[C@@H](O)[C@@H](O)CCCC(=O)O (stereo partly drawn) [15-R/S-methyl LXA4]
PGE2 production; 10 μg/pouch, P. gingivalis-injected murine air pouch, 4 hr
  decrease of PGE2 levels in the exudates: ≤ 75%
PGE2 production; murine air pouch exudates
  P. gingivalis-induced PGE2 production in murine air pouch (in words): inhibits
COX-2 mRNA
  overall expression of COX-2 in exudates: decreased
